Laboratory results taken from patent US20210355223A1, “Combinations for Treating Cancer” (Pfizer Inc., priority 2018, published 2021).

Biological target: IL-2Rαβ (Homo sapiens, UniProt P01589+P14784)
Settings: relative to IL-2 as standard
Text: The term “CD-122-biased cytokine agonist”, as used herein, refers to an agonist that has a greater affinity for binding to IL-2Rβ than to IL-2Rαβ.

Chain of IL-2Rαβ (P01589 22-240 limits assumed): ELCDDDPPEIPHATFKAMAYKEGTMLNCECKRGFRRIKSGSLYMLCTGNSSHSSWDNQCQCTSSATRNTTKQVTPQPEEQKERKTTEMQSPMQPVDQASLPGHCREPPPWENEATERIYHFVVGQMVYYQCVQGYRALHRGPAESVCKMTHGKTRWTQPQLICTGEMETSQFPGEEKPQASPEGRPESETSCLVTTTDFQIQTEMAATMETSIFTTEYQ
Chain of IL-2Rαβ (P14784 27-240 limits assumed): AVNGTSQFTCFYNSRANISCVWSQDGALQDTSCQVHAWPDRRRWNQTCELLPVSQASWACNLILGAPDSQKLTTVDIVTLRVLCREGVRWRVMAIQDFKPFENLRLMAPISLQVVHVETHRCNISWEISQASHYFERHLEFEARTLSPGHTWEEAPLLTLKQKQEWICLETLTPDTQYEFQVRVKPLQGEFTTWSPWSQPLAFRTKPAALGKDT

## (2,7-(bis-methoxyPEG10kD-carboxyamide)(9H-fluorene-9-yl)methyl N-carbamate)6avginterleukin-2 [bempegaldesleukin]
  decrease in affinity to IL-2Rαβ relative to IL-2: ~60 fold
